Results as given in ChEMBL document CHEMBL3734721 (J Med Chem, 2015).
Converted amounts (≈) assume the structure as drawn.

Experiments:
[1] = Chemical stability of compound in DMSO assessed as compound remaining at 10 mg/ml after 2 days at room temperature; assay type: physicochemical; settings: read-out: Stability
[2] = Chemical stability of compound in DMSO assessed as compound remaining at 10 mg/ml after 24 days at room temperature under air; assay type: physicochemical; settings: read-out: Stability
[3] = Chemical stability of compound in 0.1N HCL assessed as compound remaining at 10 mg/ml after 1 day; assay type: physicochemical; settings: read-out: Stability
[4] = Chemical stability of compound in 0.1N HCL and 0.5% H2O2 assessed as compound remaining at 10 mg/ml after 1 day; assay type: physicochemical; settings: read-out: Stability
[5] = Chemical stability of compound in 0.1N NaOH assessed as compound remaining at 10 mg/ml after 1 day; assay type: physicochemical; settings: read-out: Stability
[6] = Chemical stability of compound in 0.1N NaOH assessed as compound remaining at 10 mg/ml after 2 days; assay type: physicochemical; settings: read-out: Stability
[7] = Chemical stability of compound in buffer at pH 7.4 assessed as compound remaining at 10 mg/ml after 1 day; assay type: physicochemical; settings: read-out: Stability
[8] = Chemical stability of compound in buffer at pH 7.4 assessed as compound remaining at 10 mg/ml after 2 days; assay type: physicochemical; settings: read-out: Stability
[9] = Chemical stability of compound in DMSO assessed as compound remaining at 10 mg/ml after 1 day at room temperature; assay type: physicochemical; settings: read-out: Stability
[10] = target: T1, 5-hydroxytryptamine receptor 6 (Homo sapiens, UniProt P50406); experiment: Antagonist activity at human 5-HT6 receptor expressed in 1321N1 cells assessed as seretonin-induced cAMP by HTRF assay; assay type: functional, cell-based
[11] = target: T2, 5-hydroxytryptamine receptor 7 (Homo sapiens, UniProt P34969); experiment: Antagonist activity at human wild-type 5-HT7 receptor expressed in HEK cells assessed as seretonin-induced cAMP by HTRF assay; assay type: functional, cell-based, HEK293
[12] = target: T1, 5-hydroxytryptamine receptor 6; experiment: Agonist activity at human 5-HT6 receptor expressed in 1321N1 cells assessed as cAMP by HTRF assay; assay type: functional, cell-based
[13] = target: T2, 5-hydroxytryptamine receptor 7; experiment: Agonist activity at human wild-type 5-HT7 receptor expressed in HEK cells assessed as cAMP by HTRF assay; assay type: functional, cell-based, HEK293
[14] = Kinetic solubility of compound in phosphate buffer at pH 7.4 for 4 hrs by UPLC/UV analysis; assay type: physicochemical; settings: read-out: Kinetic_solubility
[15] = target: T3, Cytochrome P450 1A2 (Homo sapiens, UniProt P05177); experiment: Inhibition of human CYP1A2 by LC-MS analysis; assay type: ADME
T3 sequence (P05177 whole entry): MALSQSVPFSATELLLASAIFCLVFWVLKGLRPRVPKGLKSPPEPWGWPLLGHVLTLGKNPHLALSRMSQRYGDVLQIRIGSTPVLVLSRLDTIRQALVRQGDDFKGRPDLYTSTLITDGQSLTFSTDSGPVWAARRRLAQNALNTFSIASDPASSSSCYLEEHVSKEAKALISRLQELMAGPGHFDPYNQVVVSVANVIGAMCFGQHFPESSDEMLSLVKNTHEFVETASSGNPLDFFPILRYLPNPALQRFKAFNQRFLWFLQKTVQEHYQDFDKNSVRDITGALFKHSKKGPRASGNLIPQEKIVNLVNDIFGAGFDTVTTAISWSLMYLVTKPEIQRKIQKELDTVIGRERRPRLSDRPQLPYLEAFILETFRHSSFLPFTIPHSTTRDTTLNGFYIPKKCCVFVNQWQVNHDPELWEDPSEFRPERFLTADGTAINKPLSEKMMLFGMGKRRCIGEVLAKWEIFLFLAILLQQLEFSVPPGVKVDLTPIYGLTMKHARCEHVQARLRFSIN

[16] = target: Cytochrome P450 2C19 (Homo sapiens, UniProt P33261); experiment: Inhibition of human CYP2C19 by LC-MS analysis; assay type: ADME
[17] = target: T4, Cytochrome P450 2C8 (Homo sapiens, UniProt P10632); experiment: Inhibition of human CYP2C8 by LC-MS analysis; assay type: ADME
T4 sequence (P10632 whole entry): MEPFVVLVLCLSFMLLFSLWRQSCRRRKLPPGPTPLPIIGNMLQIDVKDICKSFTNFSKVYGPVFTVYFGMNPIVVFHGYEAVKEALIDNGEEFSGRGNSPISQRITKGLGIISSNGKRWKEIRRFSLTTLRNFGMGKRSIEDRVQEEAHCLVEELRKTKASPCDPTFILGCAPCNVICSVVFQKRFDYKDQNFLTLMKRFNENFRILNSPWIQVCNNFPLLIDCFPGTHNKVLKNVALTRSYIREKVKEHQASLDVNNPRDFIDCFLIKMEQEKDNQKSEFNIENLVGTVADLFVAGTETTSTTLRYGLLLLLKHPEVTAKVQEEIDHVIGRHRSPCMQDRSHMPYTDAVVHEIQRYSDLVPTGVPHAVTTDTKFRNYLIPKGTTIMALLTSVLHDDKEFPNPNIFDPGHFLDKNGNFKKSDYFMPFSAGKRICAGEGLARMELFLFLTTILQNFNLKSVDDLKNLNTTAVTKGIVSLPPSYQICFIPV

[18] = target: Cytochrome P450 2C9 (Homo sapiens, UniProt P11712); experiment: Inhibition of human CYP2C9 by LC-MS analysis; assay type: ADME
[19] = test system: human MDR1; experiment: Permeability across apical to basolateral in MDCK expressing human MDR1 at 5 uM by LC-MS/MS method; assay type: ADME, cell-based, Canis lupus familiaris; settings: dog, read-out: permeability
[20] = Fraction unbound in rat brain at 5 uM after 5 hrs by LC-MS/MS analysis; assay type: ADME, tissue-based
[21] = Fraction unbound in human plasma at 5 uM after 4.5 hrs by LC-MS/MS analysis; assay type: ADME, cell-free
[22] = Fraction unbound in mouse plasma at 5 uM after 4.5 hrs by LC-MS/MS analysis; assay type: ADME, cell-free
[23] = Fraction unbound in rat plasma at 5 uM after 4.5 hrs by LC-MS/MS analysis; assay type: ADME, cell-free
[24] = test system: HepG2; experiment: Cytotoxicity against human HepG2 cells; assay type: cell-based
[25] = Cmax in Swiss mouse brain at 5 mg/kg, sc; assay type: ADME, organism-based; parameters: dose 5 mg/kg, route subcutaneous
[26] = Ratio of drug level in brain to plasma in Swiss mouse at 5 mg/kg, sc; assay type: ADME, organism-based; settings: read-out: BPR

T1 sequence (P50406 whole entry): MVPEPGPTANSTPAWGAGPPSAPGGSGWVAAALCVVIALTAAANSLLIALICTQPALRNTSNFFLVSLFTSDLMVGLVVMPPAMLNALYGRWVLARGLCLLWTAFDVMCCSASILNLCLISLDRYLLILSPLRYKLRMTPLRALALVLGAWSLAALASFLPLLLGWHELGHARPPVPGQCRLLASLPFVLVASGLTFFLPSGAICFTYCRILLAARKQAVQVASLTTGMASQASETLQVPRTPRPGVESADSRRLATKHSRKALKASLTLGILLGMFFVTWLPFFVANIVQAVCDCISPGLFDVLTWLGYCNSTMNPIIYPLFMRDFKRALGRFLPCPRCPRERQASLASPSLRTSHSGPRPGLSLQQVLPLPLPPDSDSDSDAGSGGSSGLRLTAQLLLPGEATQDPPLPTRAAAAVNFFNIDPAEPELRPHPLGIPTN
T2 sequence (P34969 whole entry): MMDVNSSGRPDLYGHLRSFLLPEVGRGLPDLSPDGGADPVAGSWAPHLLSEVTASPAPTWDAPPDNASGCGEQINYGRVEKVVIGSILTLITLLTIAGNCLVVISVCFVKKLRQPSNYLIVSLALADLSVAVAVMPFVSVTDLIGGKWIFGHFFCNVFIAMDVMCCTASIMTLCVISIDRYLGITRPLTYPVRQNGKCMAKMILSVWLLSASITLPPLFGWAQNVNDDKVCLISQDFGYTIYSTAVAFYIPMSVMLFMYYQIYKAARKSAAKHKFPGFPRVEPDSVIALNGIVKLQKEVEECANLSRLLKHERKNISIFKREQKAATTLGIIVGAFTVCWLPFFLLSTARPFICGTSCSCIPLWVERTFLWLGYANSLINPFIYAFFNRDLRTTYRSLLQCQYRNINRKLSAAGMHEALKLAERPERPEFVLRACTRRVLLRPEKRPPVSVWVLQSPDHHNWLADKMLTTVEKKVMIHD
Cytochrome P450 2C19, sequence (P33261 whole entry): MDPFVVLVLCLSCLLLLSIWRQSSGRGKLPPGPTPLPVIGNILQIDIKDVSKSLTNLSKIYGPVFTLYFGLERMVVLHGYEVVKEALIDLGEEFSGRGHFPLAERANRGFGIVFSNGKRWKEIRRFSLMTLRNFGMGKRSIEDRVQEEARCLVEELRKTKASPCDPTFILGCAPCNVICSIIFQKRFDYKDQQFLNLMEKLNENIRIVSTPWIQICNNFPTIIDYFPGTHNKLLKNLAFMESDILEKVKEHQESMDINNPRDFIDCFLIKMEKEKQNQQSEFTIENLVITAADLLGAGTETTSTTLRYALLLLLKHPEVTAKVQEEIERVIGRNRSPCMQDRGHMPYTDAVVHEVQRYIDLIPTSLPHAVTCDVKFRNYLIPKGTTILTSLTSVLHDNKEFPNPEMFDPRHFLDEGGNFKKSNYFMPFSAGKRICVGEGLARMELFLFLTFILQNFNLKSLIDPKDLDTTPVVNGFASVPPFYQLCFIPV
Cytochrome P450 2C9, sequence (P11712 whole entry): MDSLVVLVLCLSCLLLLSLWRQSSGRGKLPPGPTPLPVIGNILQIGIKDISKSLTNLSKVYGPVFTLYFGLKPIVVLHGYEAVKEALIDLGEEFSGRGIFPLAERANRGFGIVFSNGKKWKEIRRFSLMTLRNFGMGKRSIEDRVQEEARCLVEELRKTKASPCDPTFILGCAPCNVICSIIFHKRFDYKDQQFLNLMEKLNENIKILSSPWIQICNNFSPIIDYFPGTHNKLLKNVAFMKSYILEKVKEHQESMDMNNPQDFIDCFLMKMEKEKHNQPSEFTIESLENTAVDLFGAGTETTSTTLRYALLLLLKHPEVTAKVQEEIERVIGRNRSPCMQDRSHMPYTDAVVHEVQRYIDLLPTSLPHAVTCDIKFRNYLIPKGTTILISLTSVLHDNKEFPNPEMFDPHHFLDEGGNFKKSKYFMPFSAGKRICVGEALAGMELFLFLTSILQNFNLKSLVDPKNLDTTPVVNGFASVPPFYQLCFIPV

CC(C)NCC(O)COc1cccc2ccccc12 (stereo unspecified) [PROPRANOLOL]
remaining at 48 h, 10 mg/ml [1]: 100%
remaining at 576 h, 10 mg/ml [2]: 100%
remaining at 24 h, 10 mg/ml [3]: 100%
remaining at 24 h, 10 mg/ml [4]: 100%
remaining at 24 h, 10 mg/ml [5]: 100%
remaining at 48 h, 10 mg/ml [6]: 100%
remaining at 24 h, 10 mg/ml [7]: 100%
remaining at 48 h, 10 mg/ml [8]: 100%
remaining at 24 h, 10 mg/ml [9]: 100%
IC50 [10]: > 5.01 µM
IC50 [11]: > 5.01 µM
EC50 [12]: > 5.01 µM
EC50 [13]: > 5.01 µM
solubility kinetic at 4 h [14]: 764 µM (≈ 198 µg/mL)
IC50 [15]: > 10 µM
IC50 [16]: > 10 µM
IC50 [17]: > 10 µM
IC50 [18]: > 10 µM
Papp A→B at 5 µM [19]: 3.5 ×10⁻⁶ cm/s
fraction unbound at 5 h, 5 µM [20]: 0.028
fraction unbound at 4.5 h, 5 µM [21]: 0.421
fraction unbound at 4.5 h, 5 µM [22]: 0.212
fraction unbound at 4.5 h, 5 µM [23]: 0.239
EC20 [24]: > 100 µM
Cmax [25]: 16 µM
Kp [26]: 23
